Calls of active or inactive are those of the source. For most assays here, no stated cut-off is given here; in the data, actives have a measured EC50 and inactives only a lower limit.
tested on: not listed separately; assay: NIH-3T3 fibroblast cytotoxicity, dose response, cytotoxicity control, cell-based, fluorescence, Alamar Blue, secondary assay (AID 2327); type: functional; conditions: not given;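 further: NIH-3T3 mouse fibroblasts cultured with fluconazole at 8 µg/mL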

Structure (SMILES) | EC50
Cc1ccc(-c2c[n+](-c3ccc(OC(F)F)cc3)c3n2CCCCC3)cc1 | > 150 µM (inconclusive)
Oc1c(Br)cc(Br)cc1Oc1ccc(Br)cc1Br | > 150 µM (inactive)
C/C(=N\O)c1cc(Cl)cc(Cl)c1O | > 160 µM (inactive)
COc1ccc(-c2nc(-c3ccncc3)no2)cc1OC | > 160 µM (inactive)

tested on: Streptococcus; assay: GAS UMAA2166 growth inhibition – luminescence, BacTiterGlo, counter-screen for streptokinase expression inhibitor project, dose response (AID 1915); type: functional, organism-based; conditions: not given;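 further: potency for reduction of bacterial viability or growth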

Structure (SMILES) | EC50
Oc1c(Br)cc(Br)cc1Oc1ccc(Br)cc1Br | 2.73 µM (active)

tested on: not listed separately; assay: Luminescence Cell-Based Dose Response HTS to Identify Activators of Luciferase Translation or Activity in H4 […] Cells. [Related pubchem assays: 1829 (Project Summary), 1814 (Primary HTS)]; type: functional; conditions: not given

Structure (SMILES) | EC50
Oc1nc(COc2ccc(Cl)cc2Cl)nc2ccccc12 | 0.107 µM (active)
Cc1nn(-c2ccccn2)c2c1-c1nc(N)ncc1CC2 | 1.98 µM (active)
c1ccc(CNc2ncnc3c2ncn3C2CCCCO2)cc1 (stereo unspecified) | 4.67 µM (active)
CC(C)C(OC(=O)c1ccccc1)c1nccc2ccccc12 (stereo unspecified) | 17.8 µM (active)
CC(=O)OCC1OC(n2cc(F)c(=O)[nH]c2=O)C(OC(C)=O)C1OC(C)=O (stereo unspecified) | 117 µM (active)
Cn1c2ccccc2c2cc(C(=O)N3CCN(CCO)CC3)sc21 | 15.3 µM (active)
CCc1ccc(OC(=O)Nc2ccccc2)cc1 | > 120 µM (not active)
c1ccc(-c2cn(CC3CCCCC3)nn2)cc1 | 0.236 µM (active)
CC(C)OC(=O)Cn1nnc2c(cnn2-c2ccccc2)c1=O | 13.1 µM (active)
Cc1ccc(Nc2nc(=O)c3cccnc3s2)cc1 | 2.71 µM (active)
O=C(Nc1ccc(-c2cn3c(n2)SCC3)cc1)c1ccc2ccccc2n1 | 24 µM (active)
COc1cccc(/C=N/NC(=O)c2[nH]nc3c2CCc2ccccc2-3)c1 | > 60 µM (not active)

tested on: not listed separately; assay: Luminescence Cell-Based Dose Confirmation HTS to Identify Activators of 5'UTR Stem-Loop Driven Alpha-Synuclein mRNA Translation in H4 Neuroglioblastoma Cells. [Related pubchem assays: 1829 (Project Summary), 1814 (Primary HTS)]; type: functional; conditions: not given

Structure (SMILES) | EC50
Oc1nc(COc2ccc(Cl)cc2Cl)nc2ccccc12 | 0.125 µM (active)
Cc1nn(-c2ccccn2)c2c1-c1nc(N)ncc1CC2 | 12.3 µM (active)
c1ccc(CNc2ncnc3c2ncn3C2CCCCO2)cc1 (stereo unspecified) | 5.99 µM (active)
CC(C)C(OC(=O)c1ccccc1)c1nccc2ccccc12 (stereo unspecified) | 21.5 µM (active)
CC(=O)OCC1OC(n2cc(F)c(=O)[nH]c2=O)C(OC(C)=O)C1OC(C)=O (stereo unspecified) | > 120 µM (not active)
Cn1c2ccccc2c2cc(C(=O)N3CCN(CCO)CC3)sc21 | > 120 µM (not active)
CCc1ccc(OC(=O)Nc2ccccc2)cc1 | 6.4 µM (active)
c1ccc(-c2cn(CC3CCCCC3)nn2)cc1 | 0.146 µM (active)
CC(C)OC(=O)Cn1nnc2c(cnn2-c2ccccc2)c1=O | 13.4 µM (active)
O=C(Nc1ccc(-c2cn3c(n2)SCC3)cc1)c1ccc2ccccc2n1 | 15.5 µM (active)
COc1cccc(/C=N/NC(=O)c2[nH]nc3c2CCc2ccccc2-3)c1 | > 120 µM (not active)

target: T1, Corticotropin-releasing factor receptor 2/Corticotropin-releasing factor-binding protein (Homo sapiens, UniProt P24387+Q13324); assay: activators of CRF receptor 2 with binding protein – uHTS hits, confirmation (AID 602473); type: functional; conditions: read-out: EC50_Mean
T1 sequence (Q13324 whole entry): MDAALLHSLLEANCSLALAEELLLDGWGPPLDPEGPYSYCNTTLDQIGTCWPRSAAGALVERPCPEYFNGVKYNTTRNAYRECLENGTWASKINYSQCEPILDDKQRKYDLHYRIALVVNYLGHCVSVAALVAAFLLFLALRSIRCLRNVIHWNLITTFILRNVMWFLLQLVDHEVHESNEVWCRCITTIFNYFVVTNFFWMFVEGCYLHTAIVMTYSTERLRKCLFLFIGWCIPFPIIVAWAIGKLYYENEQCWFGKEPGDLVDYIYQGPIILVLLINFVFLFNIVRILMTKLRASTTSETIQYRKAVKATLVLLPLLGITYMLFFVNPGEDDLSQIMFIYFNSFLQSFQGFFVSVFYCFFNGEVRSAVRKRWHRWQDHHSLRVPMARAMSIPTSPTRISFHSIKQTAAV
T1 sequence (P24387 whole entry): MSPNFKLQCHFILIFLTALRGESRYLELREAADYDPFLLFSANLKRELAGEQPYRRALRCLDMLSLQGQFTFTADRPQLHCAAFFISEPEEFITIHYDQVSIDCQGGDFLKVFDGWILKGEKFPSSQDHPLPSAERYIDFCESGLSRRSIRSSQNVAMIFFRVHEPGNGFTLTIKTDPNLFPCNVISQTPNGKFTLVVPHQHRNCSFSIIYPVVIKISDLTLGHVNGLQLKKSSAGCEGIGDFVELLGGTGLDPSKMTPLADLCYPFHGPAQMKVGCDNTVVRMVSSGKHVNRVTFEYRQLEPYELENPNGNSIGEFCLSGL

Structure (SMILES) | EC50
CC(C)CC(NC(=O)c1ccccc1)C(=O)N/N=C/c1ccco1 (stereo unspecified) | 4.81 µM (active)
O=C(Nc1ncc(S(=O)(=O)c2ccc([N+](=O)[O-])cc2)s1)c1cccc2ccccc12 | 4.23 µM (active)
CCOC(=O)c1ccc(NCn2c(=O)oc3ccccc32)cc1 | > 53 µM (inactive)

tested on: Streptococcus sp. 'group A'; assay: Streptococcus pyogenes SK(-)GAS viability under kanamycin – luminescence, BacTiterGlo, confirmation, counter-screen for streptokinase expression inhibitor project, dose response (AID 1900); type: functional, organism-based; conditions: not given

Structure (SMILES) | EC50
Oc1c(Br)cc(Br)cc1Oc1ccc(Br)cc1Br | 1.33 µM (active)

tested on: not listed separately; assay: Trypanosoma cruzi growth suppression in host cells – NIH3T3 host cells, beta-gal luminescence, confirmation (AID 2044); type: functional, cell-based; conditions: not given;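 further: intracellular parasites grown in NIH/3T3 mouse fibroblasts as host cells; luminescent beta-galactosidase reporter signal from transgenic T. cruzi replicating inside host cells; inhibitors lower the luminescence signal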

Structure (SMILES) | EC50
O=C(Nc1ncc(S(=O)(=O)c2ccc([N+](=O)[O-])cc2)s1)c1cccc2ccccc12 | 0.221 µM (active)

tested on: INS1; assay: INS-1E survival protection against cytokine death – cell-based, luminescence, retest, dose response (AID 449756); type: functional; conditions: Rattus norvegicus;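 further: cell death triggered by IL-1 beta plus TNF-alpha plus IFN-gamma mixture; protective hits raise ATP signal compared with cytokine alone wells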

Structure (SMILES) | AC50
Cc1ccc(-c2c[n+](-c3ccc(OC(F)F)cc3)c3n2CCCCC3)cc1 | 1.52 µM (active)

tested on: not listed separately; assay: fluconazole-exposed Candida albicans growth modulators – fluorescence, retest, confirmation (AID 2467); type: functional, cell-based; conditions: not given

Structure (SMILES) | EC50
Cc1ccc(-c2c[n+](-c3ccc(OC(F)F)cc3)c3n2CCCCC3)cc1 | > 38 µM (not active)
Oc1c(Br)cc(Br)cc1Oc1ccc(Br)cc1Br | > 38 µM (not active)
C/C(=N\O)c1cc(Cl)cc(Cl)c1O | 4.41 µM (active)
COc1ccc(-c2nc(-c3ccncc3)no2)cc1OC | 5.21 µM (active)

target: T2, Streptokinase A (Streptococcus pyogenes serotype M1, UniProt P10520); assay: viability-normalized secreted streptokinase activity reduction – plasminogen activation absorbance, OD405, dose response (AID 1914); type: functional, Streptococcus pyogenes M1 GAS; conditions: not given;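 further: secreted streptokinase activity via plasminogen activation per viability signal from cell pellet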
T2 sequence (P10520 whole entry): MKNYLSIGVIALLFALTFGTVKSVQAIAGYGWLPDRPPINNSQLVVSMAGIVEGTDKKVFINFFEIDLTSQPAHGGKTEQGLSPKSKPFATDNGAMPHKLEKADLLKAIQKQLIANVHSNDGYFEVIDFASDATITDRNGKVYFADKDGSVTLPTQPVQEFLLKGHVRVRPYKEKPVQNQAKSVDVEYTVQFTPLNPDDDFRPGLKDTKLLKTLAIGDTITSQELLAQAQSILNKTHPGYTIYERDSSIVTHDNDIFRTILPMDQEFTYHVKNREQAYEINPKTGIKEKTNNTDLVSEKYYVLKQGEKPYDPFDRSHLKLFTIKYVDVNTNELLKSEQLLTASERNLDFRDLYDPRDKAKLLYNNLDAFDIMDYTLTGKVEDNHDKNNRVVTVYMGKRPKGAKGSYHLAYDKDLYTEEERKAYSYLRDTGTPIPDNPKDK

Structure (SMILES) | EC50
Oc1c(Br)cc(Br)cc1Oc1ccc(Br)cc1Br | 0.753 µM (active)

tested on: not listed separately; assay: NIH3T3 cell viability loss – ATP luminescence, mouse fibroblasts, counter-screen, dose response (AID 2010); type: functional, cell-based; conditions: not given;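 further: cells exposed to compound for about 90 hours before reading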

Structure (SMILES) | EC50
O=C(Nc1ncc(S(=O)(=O)c2ccc([N+](=O)[O-])cc2)s1)c1cccc2ccccc12 | > 60 µM (not active)

tested on: H4; assay: Luminescence Cell-Based Dose Response HTS to Identify Activators of 5'UTR Stem-Loop Driven Prion Protein mRNA Translation in H4 Neuroglioblastoma Cells. [Related pubchem assays: 1829 (Project Summary), 1814 (Primary HTS)]; type: functional; conditions: Homo sapiens

Structure (SMILES) | EC50
Oc1nc(COc2ccc(Cl)cc2Cl)nc2ccccc12 | 0.148 µM (active)
c1ccc(CNc2ncnc3c2ncn3C2CCCCO2)cc1 (stereo unspecified) | > 120 µM (not active)
CC(C)C(OC(=O)c1ccccc1)c1nccc2ccccc12 (stereo unspecified) | 39.5 µM (active)
CC(=O)OCC1OC(n2cc(F)c(=O)[nH]c2=O)C(OC(C)=O)C1OC(C)=O (stereo unspecified) | > 120 µM (not active)
Cn1c2ccccc2c2cc(C(=O)N3CCN(CCO)CC3)sc21 | 33.8 µM (active)
CCc1ccc(OC(=O)Nc2ccccc2)cc1 | 7.7 µM (active)
c1ccc(-c2cn(CC3CCCCC3)nn2)cc1 | > 120 µM (inconclusive)
CC(C)OC(=O)Cn1nnc2c(cnn2-c2ccccc2)c1=O | 20.7 µM (active)
Cc1ccc(Nc2nc(=O)c3cccnc3s2)cc1 | > 120 µM (not active)
O=C(Nc1ccc(-c2cn3c(n2)SCC3)cc1)c1ccc2ccccc2n1 | 16.8 µM (active)
COc1cccc(/C=N/NC(=O)c2[nH]nc3c2CCc2ccccc2-3)c1 | > 120 µM (not active)

Source: ChEMBL document CHEMBL1201862, “PubChem BioAssay data set” (2004)
